In the SangsterLogP compilation:

Key:
[1] = method code SF-MB, from DOI: 10.1016/0378-5173(83)90017-0; conditions: pH 3.5
[2] = method code SF-HPLC, from DOI: 10.1002/ps.2780130506
[3] = not given; remark: listed apart in the source
[4] = method code SF-RC, from DOI: 10.1016/s0024-3205(01)01232-2; conditions: pH 7.4
[5] = not given; remark: listed apart in the source
[6] = method code SF-AS, from DOI: 10.1021/jf990946w, PMID: 10888534
[7] = method code SF-AS, from DOI: 10.1128/aac.27.1.84, PMID: 2580479
[8] = not given; remark: listed apart in the source
[9] = not given; remark: listed apart in the source
[10] = method code SF-RC, from DOI: 10.1016/j.nucmedbio.2011.12.002, PMID: 22321533
[11] = not given; remark: listed apart in the source
[12] = method code SF-AS, from DOI: 10.1155/2011/965826, PMID: 22295208
[13] = not given; remark: listed apart in the source
[14] = method code SF-RC, from DOI: 10.1016/s0968-0896(99)00108-x, PMID: 10530922; conditions: pH 7.2
[15] = not given; remark: listed apart in the source
[16] = not given; remark: listed apart in the source
[17] = not given; remark: listed apart in the source
[18] = method code SF-AS, from Kofitsekpo, W. (1980). An experimental evaluation of the log P of oxamniquine - a new schistosomicide. Drugs under experimental and clinical research, 6(5)421-426.
[19] = method code SF-RC, from DOI: 10.1016/j.bmc.2013.04.077, PMID: 23712084; conditions: pH 7.4
[20] = not given; remark: listed apart in the source
[21] = method code SF-RC, from Bracha, P.; O'Brien, D. (1966). The relation between physical properties and uptake of insecticides by eggs of the large milkweed bug. J Econ Entomol, 59(5)1255-1264.
[22] = not given; remark: listed apart in the source
[23] = not given; remark: listed apart in the source
[24] = method code SF-HPLC, from DOI: 10.1248/cpb.32.1929; conditions: pH 7.2
[25] = method code SF-AS, from Pogodaeva, N.; Medvedeva, S. (2005). Hydrophobic properties of a number of monosubstituted flavone and flavanone derivatives. Russian Journal of Physical Chemistry A, 79(4)645-648.
[26] = method code SF-RC, from DOI: 10.1016/j.nucmedbio.2009.09.005, PMID: 20447558; conditions: pH 7.4
[27] = method code SF-AS, from DOI: 10.1021/jm00384a018, PMID: 3806586
[28] = method code SF, from DOI: 10.1023/a:1007583422634, PMID: 11028945; conditions: pH 7.4
[29] = method code SF-RC, from DOI: 10.1016/s0969-8051(01)00199-8, PMID: 11395310; conditions: pH 7.4
[30] = not given; remark: listed apart in the source
[31] = method code SF-SF, from DOI: 10.1016/j.ejps.2010.09.003, PMID: 20854904; conditions: pH 10.0
[32] = method code SF, from PMID: 2161451; conditions: pH 7.4
[33] = method code SF-RC, from DOI: 10.1016/j.nucmedbio.2010.09.012, PMID: 21492779; conditions: pH 7.4
[34] = not given; remark: listed apart in the source
[35] = method code SF-AS, from DOI: 10.3109/00498258909043190, PMID: 2618089; conditions: pH 10.8
[36] = method code SF, from DOI: 10.1021/jm061062o.s001, PMID: 17326614; conditions: pH 7.4
[37] = method code SF, from DOI: 10.1016/0378-5173(91)90120-d
[38] = method code SF-RC, from DOI: 10.1016/j.nucmedbio.2007.07.017, PMID: 17998101; conditions: pH 7.4
[39] = not given; remark: listed apart in the source
[40] = not given; remark: listed apart in the source
[41] = method code SF-HPLC, from DOI: 10.1016/0378-5173(95)00102-o
[42] = not given; remark: listed apart in the source
[43] = method code SF-RC, from DOI: 10.1016/s0969-8051(02)00326-8, PMID: 12234587; conditions: pH 7.4
[44] = method code SF, from DOI: 10.1021/jm5017544, PMID: 25671691; conditions: pH 7.4
[45] = method code SF-HPLC, from DOI: 10.1023/a:1015968113838, PMID: 3247280; conditions: pH 7.4
[46] = not given; remark: listed apart in the source
[47] = method code SF-AS, from Lippold, B.; Lichey, J. (1984). Transport of drugs through lipophilic polymer membranes. II. Influence of the partition and diffusion coefficients. Acta pharmaceutica technologica, 30(2)140-154.

SMILES: COc1cccc(N2CCN(CCN(C)C)C2=O)c1
- logP: 1.76

SMILES: CCCCCC(=O)N[C@@H]1C(=O)N2[C@@H]1SC(C)(C)[C@@H]2C(=O)O
- logD [1]: 2.37

SMILES: CNC(=O)ON=Cc1cccc(Oc2ccccc2)c1
- logP [2]: 3.12

SMILES: Cc1c2ccccc2cc2ccccc12
- logP [3]: 4.96

SMILES: CNc1ccc(-c2nc3ccc(C)cc3s2)cc1
- logD [4]: 3.36

SMILES: O=C1c2ccccc2C(=O)C1c1ccccc1
- logP [5]: 2.5

SMILES: O=c1c(O)c(-c2cc(O)c(O)c(O)c2)oc2cc(O)cc(O)c12
- logP [6]: 0.72

SMILES: CO[C@@]1(NC(=O)CSCC#N)C(=O)N2C(C(=O)O)=C(CSc3nnnn3C)CS[C@@H]21
- logP [7]: -0.6

SMILES: CCCCCCCCc1ccccc1
- logP [8]: 6.5

SMILES: CCCN(CCOc1c(Cl)cc(Cl)cc1Cl)C(=O)n1ccnc1
- logP [9]: 4.1

SMILES: Cc1cn(C2CC(O)C(CO)O2)c(=O)n(Cc2cn(CCF)nn2)c1=O (stereo not drawn)
- logP [10]: -1.22

SMILES: Cc1c(-c2ccc(OCCCc3c[nH]cn3)cc2)no[n+]1[O-]
- logP [11]: 2.4

SMILES: CC(=O)OC[C@H]1O[C@@H](n2cnc(N)nc2=O)[C@H](OC(C)=O)[C@@H]1OC(C)=O
- logP [12]: -0.61

SMILES: CCCOC(=O)c1ccccc1C(=O)OCCC
- logP [13]: 4.05

SMILES: CSc1ccc(COCCCc2c[nH]cn2)cc1
- logD [14]: 1.88

SMILES: COc1ccc2c(c1)OCC2NC(=O)CN1CCCC1 (stereo not drawn)
- logP [15]: 1.92

SMILES: CC(C(=O)O)c1ccc2c(c1)[nH]c1ccc(Cl)cc12 (stereo not drawn)
- logP [16]: 4.04

SMILES: Cc1ccc2ccc3ccccc3c2c1
- logP [17]: 5.15

SMILES: CC(C)NCC1CCc2cc(CO)c([N+](=O)[O-])cc2N1 (stereo not drawn)
- logP [18]: 2.24

SMILES: O=C(NCCCCCF)Oc1cccc(C2=NCCO2)c1
- logD [19]: 2.33

SMILES: CC1CCCC(C)N1NC(=O)c1ccc(Cl)c(S(N)(=O)=O)c1 (stereo not drawn)
- logP [20]: 1.18

SMILES: CNC(=O)Oc1cc(C(C)C)cc(C(C)C)c1
- logP [21]: 3.55

SMILES: CC(C)(c1cc(Br)c(O)c(Br)c1)c1cc(Br)c(O)c(Br)c1
- logP [22]: 5.2

SMILES: CC(C)(C)C(O)[C@H](Cc1ccc(Cl)cc1)n1cncn1 (stereo in doubt)
- logP [23]: 3.26

SMILES: COC(COC(N)=O)C1=C(N2CC2)C(=O)C(C)=C(N2CC2)C1=O (stereo not drawn)
- logD [24]: 0

SMILES: O=C1c2ccccc2OC(c2ccccc2)C1O (stereo not drawn)
- logP [25]: 2.57

SMILES: CC(C1CCCCC1)N(C)C(=O)c1ccc[nH]1 (stereo not drawn)
- logD [26]: 1.48

SMILES: CC(O)C1=CCN(NC(=O)c2ccccc2)CC1 (stereo not drawn)
- logP [27]: 0.04

SMILES: CCCCCOC(=O)[C@@H](N)Cc1ccc(O)c(O)c1
- logD [28]: 1.5

SMILES: CCN1CCC[C@H]1CNC(=O)c1c(OC)ccc(I)c1O
- logD [29]: 2.85

SMILES: COC(=O)C1(O)c2ccccc2-c2ccccc21
- logP [30]: 1.67

SMILES: CN1CCN(CCC(=O)c2ccccc2)CC1
- logD [31]: 1.12

SMILES: CCOC(=O)c1ncn2c1CN(C)C(=O)c1c(I)cccc1-2
- logD [32]: 1.48

SMILES: CN(C)c1ccc(-c2nc3ccc(I)cc3[nH]2)cc1
- logD [33]: 2.8

SMILES: O=c1c(O)c(-c2ccc(O)c(O)c2)oc2cc(O)cc(O)c12
- logP [34]: 2.13

SMILES: O=C(Cn1c(=O)sc2ccc(Cl)cc21)N1CCN(CCO)CC1
- logD [35]: 1.04

SMILES: CS(=O)(=O)CCN(CCBr)c1cc(C(=O)NCC(O)CO)c([N+](=O)[O-])cc1[N+](=O)[O-] (stereo not drawn)
- logD [36]: -0.05

SMILES: Cc1cccc(Nc2ccccc2C(=O)O)c1C
- logP [37]: 4.38

SMILES: FCCON=C1C=C(C#Cc2ccccn2)CCC1
- logD [38]: 2.1

SMILES: S=C(CCCCC1CCSS1)NCCN1CCOCC1 (stereo not drawn)
- logP [39]: 2.9

SMILES: CC(C)(C)C(=O)CC(C(O)C(C)(C)C)n1cncn1 (stereo not drawn)
- logP [40]: 1.95

SMILES: CCCCCCCCOC(=O)c1cccnc1
- logP [41]: 4.71

SMILES: COc1ccc(CN2CCNCC2)c(OC)c1OC
- logP [42]: 1.04

SMILES: CNc1ccc(-c2cc3cc(I)ccc3o2)cc1
- logD [43]: 2.04

SMILES: Nc1ccc(-c2ccc3ccccc3n2)cc1
- logD [44]: 1.85

SMILES: CC(C)(C)C(=O)OCC1OC(n2cc(I)c(=O)[nH]c2=O)CC1O (stereo not drawn)
- logD [45]: 1.34

SMILES: CCN(CC)CCNC(=O)c1cc(Br)c(N)cc1OC
- logP [46]: 2.62

SMILES: Cc1ccc(Cl)c(OCC(O)CNC(C)(C)C)c1 (stereo not drawn)
- logP [47]: 2.8
